Assay results taken from paper PMC11391452, “Fruits from Rosa roxburghii: A Valuable Bioresource of Potent Radical Scavengers and Novel Ursane-Type Triterpenoids” (ACS Omega, 2024).
Entries after “also recorded” stand apart in the source; their conditions may differ.

Experiments:
[1] = DPPH radical scavenging capacity assay; details: for free radical scavenging effect in comparison to ascorbic acid, in words: DPPH assay; for EC50 / DPPH EC50: pure compounds, 30 min, 517 nm, ascorbic acid positive control
Method: The DPPH radical scavenging capacity assay was performed according to a previously described method with slight modifications.[34] Briefly, the tested compounds or extracts were dissolved in a small volume of DMSO to generate a 10 mM or 100 mg mL^–1 (for the extracts) stock solution and diluted to generate the final testing solution with methanol. The 0.2 mM fresh DPPH methanol solution was prepared daily. The 90 μL of methanolic solution of DPPH was added to 60 μL of tested compound solution with different concentrations (or 60 μL of methanol as blank) in 96-well plates and allowed to react for 30 min at ambient temperature in the dark. The absorbance (OD) was measured at 517 nm on an Infinite M200 Pro (Tecan, Austria) microplate reader. The level of the DPPH• scavenging activity was calculated as [drawing 1] The EC50 values were calculated by using GraphPad Prism 8 software 4.6.

COX-2 = target: T1, COX-2 (Ovis aries, UniProt P79208); test: COX (ovine) colorimetric inhibitor screening assay, COX-2; type: biochemical; details: for COX-2 inhibition, in words: in comparison to acetaminophen, Figure 3 A
T1 construct: purchased Cayman 760110
T1 sequence (P79208 17-603): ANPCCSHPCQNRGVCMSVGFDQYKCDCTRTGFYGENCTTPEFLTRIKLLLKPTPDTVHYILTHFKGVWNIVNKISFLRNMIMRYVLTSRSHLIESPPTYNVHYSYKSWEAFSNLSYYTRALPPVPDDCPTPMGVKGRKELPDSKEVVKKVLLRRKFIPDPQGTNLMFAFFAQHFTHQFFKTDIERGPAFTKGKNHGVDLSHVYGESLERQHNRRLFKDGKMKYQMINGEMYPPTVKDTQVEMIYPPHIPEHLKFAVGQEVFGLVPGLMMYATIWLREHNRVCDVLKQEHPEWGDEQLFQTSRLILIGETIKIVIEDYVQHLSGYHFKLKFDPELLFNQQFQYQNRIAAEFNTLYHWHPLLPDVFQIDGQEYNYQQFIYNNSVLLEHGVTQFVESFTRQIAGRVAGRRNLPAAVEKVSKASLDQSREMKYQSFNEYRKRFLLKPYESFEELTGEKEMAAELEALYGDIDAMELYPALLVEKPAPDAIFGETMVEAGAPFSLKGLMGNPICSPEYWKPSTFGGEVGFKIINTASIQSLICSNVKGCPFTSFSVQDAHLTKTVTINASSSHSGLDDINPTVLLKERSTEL
Method: (§1) Each compound was assayed in triplicate, and GraphPad Prism 8 software was used to calculate EC50 values. All statistical analyses were performed by Microsoft Excel.

COX-1 = target: T2, COX-1 (Ovis aries, UniProt P05979); test: COX (ovine) colorimetric inhibitor screening assay, COX-1; type: biochemical; details: for COX-1 inhibition, in words: in comparison to acetaminophen, Figure 3 A
T2 construct: purchased Cayman 760110
T2 sequence (P05979 25-600): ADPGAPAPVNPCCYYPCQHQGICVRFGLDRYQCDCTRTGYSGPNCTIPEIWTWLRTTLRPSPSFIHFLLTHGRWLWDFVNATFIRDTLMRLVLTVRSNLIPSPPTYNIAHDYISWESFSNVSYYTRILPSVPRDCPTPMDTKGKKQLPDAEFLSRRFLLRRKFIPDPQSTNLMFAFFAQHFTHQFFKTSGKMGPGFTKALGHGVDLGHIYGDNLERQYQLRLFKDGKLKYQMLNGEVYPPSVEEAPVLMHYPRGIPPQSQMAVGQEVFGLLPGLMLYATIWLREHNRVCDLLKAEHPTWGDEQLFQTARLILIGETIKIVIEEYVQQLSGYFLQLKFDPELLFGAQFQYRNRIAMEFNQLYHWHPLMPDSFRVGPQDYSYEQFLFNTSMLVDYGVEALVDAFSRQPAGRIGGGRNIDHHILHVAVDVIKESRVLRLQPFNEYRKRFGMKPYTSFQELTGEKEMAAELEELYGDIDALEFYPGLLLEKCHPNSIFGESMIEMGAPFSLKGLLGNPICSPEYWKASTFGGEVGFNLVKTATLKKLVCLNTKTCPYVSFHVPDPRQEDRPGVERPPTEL
Method: as §1

HepG2 cells = test: Hepatoprotective assay (APAP-exposed cells, cell viability); type: cell-based; details: tested concentration of 100 μM (method 50 μM), 20 mM APAP, Figure 3 B1
Method: HepG2 cells were seeded into 96-well tissue culture dishes at 5 × 10^3 cells/well and cultured overnight in DMEM medium supplemented with 10% FBS and 1% penicillin/streptomycin antibiotics at 37 °C in a humidified 5% CO2 incubator. The cells were then incubated with test compounds at 50 μM or extracts at 200 mg mL^–1 for 4 h before acetaminophen (APAP) exposure. After this pretreatment, the experimental group was treated with 20 mM APAP together with the compounds; the APAP-only group was treated with 20 mM neomycin and an equivalent volume of DMSO; and the control group was treated with an equivalent volume of DMSO without APAP or test compounds. After another 24 h of culture, the cell viability was then measured using the CellTiter 96 Aqueous One Solution Cell Proliferation Assay kit (Promega, USA).[12]

HaCaT cells = test: Anti-aging bioassay (UV-B irradiation model and viability assay, MTS); type: cell-based, Human; details: samples 25 μM, 24 h
Method: Human HaCaT cells were cultured routinely in DMEM (high glucose) supplemented with 10% fetal bovine serum and 1% penicillin–streptomycin solution in a humidified incubator at 37 °C and 5% CO2.[19] All cells were cultured in culture dishes, and the medium was changed every day. The cells were cultured when the cell density reached 80%. Briefly, the HaCaT cells were cultured for 24 h after plating at a density of 4 × 10^4 cells/100 μL in 96-well plates. Subsequently, cells were irradiated according to the grouping using a 20 W UV–B lamp (SiTing, Shanghai, CN) at a distance of 10 cm for 5 s. The irradiation dose was calculated to be approximately 0.80 J cm^–2. Cells were divided into the following groups: control, UV–B alone, and UV–B + samples (25 μM). After UV–B irradiation, HaCaT cells continued to culture for 24 h with the medium containing compounds to be measured. The effects of those compounds on cell protection were determined by the MTS assay (BestBio, Shanghai, CN). After incubation, cells in each well were treated with 20 μL MTS solution for 1 h. The absorbance at 490 nm was measured directly with a microplate reader (FlexStation3, Molecular Devices, CA, US). Cell viability was expressed as the ratio percentage of MTS after deducting background value, assuming that the absorbance of control cells with deducting background absorbance was 100%.

[2] = pure compounds, acetaminophen positive control

O=c1c(O)c(-c2ccc(O)c(O)c2)oc2cc(O)cc(O)c12 [Compound 16, quercetin]
free radical scavenging effect in comparison to ascorbic acid, in words [1]: powerful free radical scavenging effects
EC50 [1]: 13.1 µM
COX-2 inhibition, in words (COX-2): high inhibition rates
EC50 (COX-2; [2]): 18.8 µM
COX-1 inhibition, in words (COX-1): high inhibition rates
EC50 (COX-1; [2]): 33.1 µM
hepatoprotective effect (cell viability of HepG2 cells), in words (HepG2 cells): no protective effects

C[C@@H]1CC[C@]2(C(=O)O)CC[C@]3(C)C(=CC[C@@H]4[C@@]5(C)CC(=O)[C@H](O)C(C)(C)[C@@H]5CC[C@]43C)[C@@H]2[C@]1(C)O [Compound 5, 2-oxo-pomolic acid]
DPPH EC50 [1]: no activity
COX-2 inhibition, in words (COX-2): significant activities; also recorded: high inhibition rates
EC50 (COX-2; [2]): 16.6 µM
COX-1 inhibition, in words (COX-1): significant activities; also recorded: high inhibition rates
EC50 (COX-1; [2]): 28.2 µM
anti-aging effect (cell viability after UV-B irradiation), in words (HaCaT cells; Figure 3 B2): most active compounds
anti-aging effect (cell viability after UV-B irradiation), in words (HaCaT cells; Figure 3 B2, listed as 2-oxo-pomolic acid): performed well
hepatoprotective effect (cell viability of HepG2 cells), in words (HepG2 cells): no protective effects

O=C1O[C@H]([C@@H](O)CO)C(O)=C1O [Ascorbic acid, ascorbic acid, reference compound]
EC50 [1]: 31.3 µM

O=C(O)c1cc(O)c(O)c(O)c1 [Compound 21, gallic acid]
free radical scavenging effect in comparison to ascorbic acid, in words [1]: powerful free radical scavenging effects
EC50 [1]: 10 µM
COX-2 inhibition, in words (COX-2): high inhibition rates
EC50 (COX-2; [2]): 26.3 µM
COX-1 inhibition, in words (COX-1): high inhibition rates
EC50 (COX-1; [2]): 40 µM

CC(=O)Nc1ccc(O)cc1 [Acetaminphen, acetaminophen, reference compound]
EC50 (COX-2; [2]): 45 µM
EC50 (COX-1; [2]): > 100 µM

CC1(C)C(O)C(=O)CC2(C)C1CCC1(C)C2CC=C2C3C(C(=O)O)(CCC(C(=O)O)C3(C)O)CCC21C (centres unmarked) [Compound 3, rosaroxine C]
DPPH EC50 [1]: no activity
COX-2 inhibition, in words (COX-2): significant activities; also recorded: high inhibition rates
EC50 (COX-2; [2]): 37.4 µM
COX-1 inhibition, in words (COX-1): significant activities; also recorded: high inhibition rates
EC50 (COX-1; [2]): 40.3 µM
anti-aging effect (cell viability after UV-B irradiation), in words (HaCaT cells; Figure 3 B2): most active compounds
anti-aging effect (cell viability after UV-B irradiation), in words (HaCaT cells; Figure 3 B2, listed as rosaroxine C): performed well
hepatoprotective effect (cell viability of HepG2 cells), in words (HepG2 cells): no protective effects

Oc1cc(O)c2c(c1)OC(c1ccc(O)c(O)c1)C(O)C2 (centres unmarked) [Compound 15, catechin]
free radical scavenging effect in comparison to ascorbic acid, in words [1]: powerful free radical scavenging effects
EC50 [1]: 13.4 µM
EC50 (COX-2; [2]): 53.3 µM
COX-1 inhibition, in words (COX-1): high inhibition rates
EC50 (COX-1; [2]): 29 µM
hepatoprotective effect (cell viability of HepG2 cells), in words (HepG2 cells): no protective effects

O=C(O)c1ccc(O)c(O)c1 [Compound 22, protocatechuic acid]
free radical scavenging effect in comparison to ascorbic acid, in words [1]: powerful free radical scavenging effects
EC50 [1]: 15.2 µM
COX-2 EC50 (COX-2; [2]): no activity
COX-1 EC50 (COX-1; [2]): no activity
anti-aging effect (cell viability after UV-B irradiation), in words (HaCaT cells; Figure 3 B2): most active compounds
hepatoprotective effect (cell viability of HepG2 cells), in words (HepG2 cells): no protective effects
